Experimental data from the supplement of paper PMC12819154, “High-throughput peptide-centric local stability assay extends protein–ligand identification to membrane proteins, tissues and bacteria” (Nature Structural & Molecular Biology, 2025).

What was measured:
Assay in all cases: pEC50 of peptide local stability change
MurD = MurD (UniProt P14900); conditions: peptide sequence: YLNGDNVR; direction: stabilized; replicate design: treated separately
Protocol: (§1)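 Dose-response HT-PELSA: desalted E. coli lysate treated separately per replicate with ATP (10 uM to 10 mM, 7 doses) for 30 min at 25 C, then a 4 min trypsin pulse at 22 C. Peptide ratio vs control was fitted with a 4-parameter log-logistic model (R2 > 0.9 in at least 3 replicates, CV of pEC50 <= 0.25); value is the mean pEC50 across replicates for stabilized or destabilized peptides.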

MurF = MurF (UniProt P11880); conditions: peptide sequence: KLTPGCLFVALKGER; direction: stabilized; replicate design: treated separately
Protocol: as §1

UniProt P00954 = conditions: peptide sequence: FRNDEAFLQQVMK; direction: stabilized; replicate design: treated separately
Protocol: as §1

UniProt P03007 = conditions: peptide sequence: VTDSLAVAR; direction: stabilized; replicate design: treated separately
Protocol: as §1

UniProt P06612 = conditions: peptide sequence: DLPTSGSAAKK; direction: stabilized; replicate design: treated separately
Protocol: as §1

UniProt P06999 = conditions: peptide sequence: ELTQPDDVR; direction: stabilized; replicate design: treated separately
Protocol: as §1

UniProt P07118 = conditions: peptide sequence: ITPAHDFNDYEVGKR; direction: stabilized; replicate design: treated separately
Protocol: as §1

UniProt P07395 = conditions: peptide sequence: EISRFPANRR; direction: stabilized; replicate design: treated separately
Protocol: as §1

UniProt P0A8F8 = conditions: peptide sequence: VLVTTLTKR; direction: stabilized; replicate design: treated separately
Protocol: as §1

UniProt P0AES0 = conditions: peptide sequence: GDESLVIKK; direction: stabilized; replicate design: treated separately
Protocol: as §1

UniProt P0AFU4 = conditions: peptide sequence: LMTASWPGNVR; direction: stabilized; replicate design: treated separately
Protocol: as §1

UniProt P0AFW8 = conditions: peptide sequence: KNVEYLVVEAAGETR; direction: stabilized; replicate design: treated separately
Protocol: as §1

UniProt P11454 = conditions: peptide sequence: ALPLPELK; direction: stabilized; replicate design: treated separately
Protocol: as §1

UniProt P11868 = conditions: peptide sequence: HIAGHAASLR; direction: stabilized; replicate design: treated separately
Protocol: as §1

UniProt P13009 = conditions: peptide sequence: TPPVTLEAAR; direction: stabilized; replicate design: treated separately
Protocol: as §1

UniProt P23538 = conditions: peptide sequence: QVKIEDVPQEQR; direction: stabilized; replicate design: treated separately
Protocol: as §1

UniProt P23830 = conditions: peptide sequence: EALGVLHFK; direction: stabilized; replicate design: treated separately
Protocol: as §1

UniProt P25536 = conditions: peptide sequence: IVTGIEEQR; direction: stabilized; replicate design: treated separately
Protocol: as §1

UniProt P27278 = conditions: peptide sequence: TVAILGGESSGK; direction: stabilized; replicate design: treated separately
Protocol: as §1

UniProt P27550 = conditions: peptide sequence: NTSFAPGNVSIK; direction: stabilized; replicate design: treated separately
Protocol: as §1

UniProt P27828 = conditions: peptide sequence: AHNPYGDGQACSR; direction: stabilized; replicate design: treated separately
Protocol: as §1

UniProt P30844 = conditions: peptide sequence: AGQSFSSGNYQHVK; direction: stabilized; replicate design: treated separately
Protocol: as §1

UniProt P33593 = conditions: peptide sequence: LADDVAVMSDGK; direction: stabilized; replicate design: treated separately
Protocol: as §1

UniProt P37617 = conditions: peptide sequence: VTQVAFDKTGTLTVGKPR; direction: stabilized; replicate design: treated separately
Protocol: as §1

UniProt P37624 = conditions: peptide sequence: VLASGTPQELVEKR; direction: stabilized; replicate design: treated separately
Protocol: as §1

UniProt P37903 = conditions: peptide sequence: KFKLPTDR; direction: stabilized; replicate design: treated separately
Protocol: as §1

UniProt P39410 = conditions: peptide sequence: HIAQEMPEK; direction: stabilized; replicate design: treated separately
Protocol: as §1

UniProt P45395 = conditions: peptide sequence: VNDIMHTGDEIPHVKK; direction: stabilized; replicate design: treated separately
Protocol: as §1

UniProt P75821 = conditions: peptide sequence: SAKEPPLTHYGVSK; direction: stabilized; replicate design: treated separately
Protocol: as §1

UniProt Q46927 = conditions: peptide sequence: AALIAYCR; direction: stabilized; replicate design: treated separately
Protocol: as §1

UniProt Q47129 = conditions: peptide sequence: LSTVTTSGVNLSR; direction: stabilized; replicate design: treated separately
Protocol: as §1

UniProt P37624, sequence (P37624 whole entry): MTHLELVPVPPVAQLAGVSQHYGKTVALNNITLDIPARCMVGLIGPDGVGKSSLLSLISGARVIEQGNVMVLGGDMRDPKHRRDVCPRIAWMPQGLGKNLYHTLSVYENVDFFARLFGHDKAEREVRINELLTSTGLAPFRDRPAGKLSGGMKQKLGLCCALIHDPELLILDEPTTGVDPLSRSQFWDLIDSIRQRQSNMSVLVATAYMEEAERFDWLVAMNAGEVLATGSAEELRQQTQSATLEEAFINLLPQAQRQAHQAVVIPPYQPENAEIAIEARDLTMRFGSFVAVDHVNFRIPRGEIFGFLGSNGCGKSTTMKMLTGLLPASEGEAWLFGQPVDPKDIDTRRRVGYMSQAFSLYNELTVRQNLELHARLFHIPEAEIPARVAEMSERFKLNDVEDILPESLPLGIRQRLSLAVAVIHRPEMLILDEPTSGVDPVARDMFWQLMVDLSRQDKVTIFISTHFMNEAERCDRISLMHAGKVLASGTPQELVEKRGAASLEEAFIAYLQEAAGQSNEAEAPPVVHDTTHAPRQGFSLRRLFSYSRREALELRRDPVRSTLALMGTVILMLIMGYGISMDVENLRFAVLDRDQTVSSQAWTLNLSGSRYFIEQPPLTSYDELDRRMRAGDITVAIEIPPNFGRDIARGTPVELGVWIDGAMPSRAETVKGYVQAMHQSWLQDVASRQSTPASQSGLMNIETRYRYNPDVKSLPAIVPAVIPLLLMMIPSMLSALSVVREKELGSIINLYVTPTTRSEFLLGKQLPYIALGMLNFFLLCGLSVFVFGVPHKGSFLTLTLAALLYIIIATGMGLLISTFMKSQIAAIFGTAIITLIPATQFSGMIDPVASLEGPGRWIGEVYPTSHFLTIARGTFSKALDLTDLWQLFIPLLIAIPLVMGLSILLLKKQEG
UniProt P11868, sequence (P11868 whole entry): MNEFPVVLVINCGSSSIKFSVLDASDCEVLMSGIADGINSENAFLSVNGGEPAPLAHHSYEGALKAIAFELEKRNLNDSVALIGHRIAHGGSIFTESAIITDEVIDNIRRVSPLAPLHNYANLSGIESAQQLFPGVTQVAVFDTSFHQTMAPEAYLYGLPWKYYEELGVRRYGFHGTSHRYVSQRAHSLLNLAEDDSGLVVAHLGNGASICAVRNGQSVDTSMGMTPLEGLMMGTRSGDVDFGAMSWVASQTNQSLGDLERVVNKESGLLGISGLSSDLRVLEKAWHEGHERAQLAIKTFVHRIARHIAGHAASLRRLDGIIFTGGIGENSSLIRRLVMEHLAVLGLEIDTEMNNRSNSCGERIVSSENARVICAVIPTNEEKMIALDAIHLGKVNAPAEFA
UniProt P06612, sequence (P06612 whole entry): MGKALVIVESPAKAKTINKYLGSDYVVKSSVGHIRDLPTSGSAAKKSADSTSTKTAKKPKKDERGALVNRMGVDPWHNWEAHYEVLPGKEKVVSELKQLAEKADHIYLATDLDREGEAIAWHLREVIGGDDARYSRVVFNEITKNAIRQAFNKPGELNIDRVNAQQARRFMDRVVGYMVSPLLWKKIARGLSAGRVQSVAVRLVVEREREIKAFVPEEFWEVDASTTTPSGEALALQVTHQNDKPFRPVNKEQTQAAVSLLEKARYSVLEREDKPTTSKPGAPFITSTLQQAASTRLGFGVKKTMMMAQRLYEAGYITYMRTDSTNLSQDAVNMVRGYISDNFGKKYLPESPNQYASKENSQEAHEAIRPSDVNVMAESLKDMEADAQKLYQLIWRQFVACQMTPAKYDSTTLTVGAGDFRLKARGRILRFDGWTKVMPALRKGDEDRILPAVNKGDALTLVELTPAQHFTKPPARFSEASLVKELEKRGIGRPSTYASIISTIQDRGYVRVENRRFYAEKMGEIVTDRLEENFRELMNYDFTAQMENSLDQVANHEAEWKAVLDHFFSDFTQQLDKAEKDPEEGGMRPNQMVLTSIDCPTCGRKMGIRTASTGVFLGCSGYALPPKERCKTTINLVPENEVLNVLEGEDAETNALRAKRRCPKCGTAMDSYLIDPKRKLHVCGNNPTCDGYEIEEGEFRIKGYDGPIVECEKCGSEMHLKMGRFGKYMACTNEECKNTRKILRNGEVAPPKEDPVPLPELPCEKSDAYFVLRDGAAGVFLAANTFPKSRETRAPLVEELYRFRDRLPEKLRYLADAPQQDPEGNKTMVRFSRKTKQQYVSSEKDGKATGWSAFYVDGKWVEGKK
UniProt P11454, sequence (P11454 whole entry): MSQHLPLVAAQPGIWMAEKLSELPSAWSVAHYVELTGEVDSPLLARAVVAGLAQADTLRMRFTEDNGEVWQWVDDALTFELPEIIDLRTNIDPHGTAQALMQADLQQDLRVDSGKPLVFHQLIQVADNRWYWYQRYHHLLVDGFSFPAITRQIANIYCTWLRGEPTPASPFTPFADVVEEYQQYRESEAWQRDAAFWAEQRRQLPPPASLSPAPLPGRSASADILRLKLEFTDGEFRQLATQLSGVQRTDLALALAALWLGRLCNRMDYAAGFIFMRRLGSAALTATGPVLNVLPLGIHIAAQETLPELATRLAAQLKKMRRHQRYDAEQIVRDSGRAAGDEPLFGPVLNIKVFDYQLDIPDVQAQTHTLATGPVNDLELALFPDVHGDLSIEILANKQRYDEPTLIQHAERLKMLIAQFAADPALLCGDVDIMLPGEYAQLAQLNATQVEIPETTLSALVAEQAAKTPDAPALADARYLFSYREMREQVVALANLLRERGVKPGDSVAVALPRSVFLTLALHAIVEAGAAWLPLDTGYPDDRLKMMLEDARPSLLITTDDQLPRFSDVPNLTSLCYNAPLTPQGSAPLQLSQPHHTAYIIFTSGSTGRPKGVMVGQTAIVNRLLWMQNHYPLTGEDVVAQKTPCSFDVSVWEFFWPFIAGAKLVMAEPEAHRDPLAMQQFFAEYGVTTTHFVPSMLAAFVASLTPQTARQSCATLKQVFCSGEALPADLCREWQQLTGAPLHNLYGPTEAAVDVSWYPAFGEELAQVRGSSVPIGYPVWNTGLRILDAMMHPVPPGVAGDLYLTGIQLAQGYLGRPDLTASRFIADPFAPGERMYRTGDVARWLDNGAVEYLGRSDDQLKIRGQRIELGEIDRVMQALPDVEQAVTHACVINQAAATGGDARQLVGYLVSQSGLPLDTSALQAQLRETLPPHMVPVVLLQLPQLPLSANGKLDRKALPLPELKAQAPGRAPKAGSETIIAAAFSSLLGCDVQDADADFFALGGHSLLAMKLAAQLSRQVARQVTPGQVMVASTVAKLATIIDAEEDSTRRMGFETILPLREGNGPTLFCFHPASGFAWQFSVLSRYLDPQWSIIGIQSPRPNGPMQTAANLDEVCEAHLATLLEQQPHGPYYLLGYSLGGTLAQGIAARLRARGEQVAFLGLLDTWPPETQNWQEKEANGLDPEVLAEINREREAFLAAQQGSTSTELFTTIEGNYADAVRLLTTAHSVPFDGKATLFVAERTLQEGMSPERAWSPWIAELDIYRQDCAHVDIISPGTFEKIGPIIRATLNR
UniProt P75821, sequence (P75821 whole entry): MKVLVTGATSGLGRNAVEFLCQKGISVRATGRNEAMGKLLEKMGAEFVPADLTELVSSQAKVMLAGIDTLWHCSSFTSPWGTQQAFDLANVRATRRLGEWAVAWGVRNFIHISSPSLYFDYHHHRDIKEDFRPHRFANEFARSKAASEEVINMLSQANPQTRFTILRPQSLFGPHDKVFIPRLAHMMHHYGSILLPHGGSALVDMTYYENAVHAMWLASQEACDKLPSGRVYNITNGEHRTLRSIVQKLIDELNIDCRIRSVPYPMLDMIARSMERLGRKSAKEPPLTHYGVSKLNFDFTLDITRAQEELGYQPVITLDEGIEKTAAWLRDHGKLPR
UniProt P07395, sequence (P07395 whole entry): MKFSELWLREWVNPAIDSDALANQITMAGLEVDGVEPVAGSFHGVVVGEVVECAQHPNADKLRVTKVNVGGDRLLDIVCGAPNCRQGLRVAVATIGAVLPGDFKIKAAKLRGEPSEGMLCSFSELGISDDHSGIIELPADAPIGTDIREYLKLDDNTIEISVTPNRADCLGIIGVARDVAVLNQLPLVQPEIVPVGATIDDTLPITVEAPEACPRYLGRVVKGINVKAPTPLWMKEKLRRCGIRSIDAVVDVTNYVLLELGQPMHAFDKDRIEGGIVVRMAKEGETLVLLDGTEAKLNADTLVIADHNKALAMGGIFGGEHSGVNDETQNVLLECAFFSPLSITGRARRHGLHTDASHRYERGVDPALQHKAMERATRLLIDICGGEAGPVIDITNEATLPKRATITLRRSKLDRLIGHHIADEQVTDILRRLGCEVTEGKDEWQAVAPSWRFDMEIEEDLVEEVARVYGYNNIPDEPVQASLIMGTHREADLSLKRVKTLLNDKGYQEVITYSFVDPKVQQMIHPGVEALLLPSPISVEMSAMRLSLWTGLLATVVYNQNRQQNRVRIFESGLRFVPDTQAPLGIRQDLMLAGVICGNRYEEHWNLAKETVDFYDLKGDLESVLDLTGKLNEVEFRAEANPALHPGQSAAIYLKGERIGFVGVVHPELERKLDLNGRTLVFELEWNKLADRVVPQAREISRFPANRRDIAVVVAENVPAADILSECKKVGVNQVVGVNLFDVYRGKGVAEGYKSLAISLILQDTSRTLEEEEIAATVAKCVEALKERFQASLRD
UniProt P0AFW8, sequence (P0AFW8 whole entry): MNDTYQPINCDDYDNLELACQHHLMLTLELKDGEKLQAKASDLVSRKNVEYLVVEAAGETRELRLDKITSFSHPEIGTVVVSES
UniProt P30844, sequence (P30844 whole entry): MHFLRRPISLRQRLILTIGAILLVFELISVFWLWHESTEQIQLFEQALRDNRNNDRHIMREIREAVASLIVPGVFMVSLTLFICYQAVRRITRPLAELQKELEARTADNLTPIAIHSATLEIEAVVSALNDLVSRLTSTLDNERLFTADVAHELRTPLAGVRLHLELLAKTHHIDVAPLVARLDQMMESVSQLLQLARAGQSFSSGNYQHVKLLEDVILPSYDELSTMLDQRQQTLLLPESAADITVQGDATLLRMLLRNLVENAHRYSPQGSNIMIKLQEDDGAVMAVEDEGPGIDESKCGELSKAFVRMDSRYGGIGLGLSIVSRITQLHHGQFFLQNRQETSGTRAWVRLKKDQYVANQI

Nc1ncnc2c1ncn2[C@@H]1O[C@H](COP(=O)(O)OP(=O)(O)OP(=O)(O)O)[C@@H](O)[C@H]1O [adenosine 5'-triphosphate]
Conditions | pEC50 of peptide local stability change
MurD | 3.82
MurF | 4.01
UniProt P0A8F8 | 2.14
UniProt P0AES0 | 3.95
UniProt P0AFU4 | 3.39
UniProt P0AFW8 | 3.07
UniProt P00954 | 2.73
UniProt P03007 | 2.27
UniProt P06612 | 2.16
UniProt P06999 | 3.2
UniProt P07118 | 3.75
UniProt P07395 | 3.77
UniProt P11454 | 3.15
UniProt P11868 | 3.41
UniProt P13009 | 2.53
UniProt P23538 | 4.42
UniProt P23830 | 2.53
UniProt P25536 | 3.52
UniProt P27278 | 3.44
UniProt P27550 | 3.34
UniProt P27828 | 2.12
UniProt P30844 | 2.71
UniProt P33593 | 4.43
UniProt P37617 | 3.12
UniProt P37624 | 3.2
UniProt P37903 | 3.72
UniProt P39410 | 3.92
UniProt P45395 | 3.32
UniProt P75821 | 2.62
UniProt Q46927 | 3.69
UniProt Q47129 | 2.46
